Data from patent publication US8114885B2, “Chemical compounds” (GlaxoSmithKline LLC, priority 2000, dated 2012).

What follows are molecules tested on HUVEC (assay: Human Umbilical Vein Endothelial Cell (HUVEC) proliferation assay (BrdU incorporation)). Details: VEGF-stimulated HUVEC, 72 hrs, read-out: Inhibition of HUVEC proliferation IC50.
Format: cell-based
Description: Human Umbilical Vein Endothelial Cell (HUVEC) Proliferation Assay (BrdU Incorporation) Materials
HUVEC cells and EGM-MV (Endothelial cell growth medium—microvascular) were purchased from Clonetics (San Diego, Calif.). VEGF and bFGF were purchased from R&D Systems (Minneapolis, Minn.). Anti-BrdU antibody was obtained from Chemicon International (Temecula, Calif.).
HUVECs were routinely maintained in EGM-MV medium and were used within passage 7. HUVECs were plated at a density of 2500 cells/well in M199 medium containing 5% FBS (Hyclone) in type I collagen coated plate (Becton Dickinson). The plate was incubated at 37° C. overnight. The medium was removed by aspiration, and test compounds were added to each well in a volume of 0.1 ml/well in serum-free M199 medium. Compound concentrations ranged from 1.5 nM to 30 micromolar. The plate was incubated for 30 min at 37° C. Another 0.1 ml of serum-free M199 medium containing BSA and VEGF (or bFGF) was added to give a final concentration of 0.1% BSA and 10 ng/ml VEGF (0.3 ng/ml bFGF). The plate was incubated at 37° C. for 72 hrs. BrdU was added to each well after the first 48 hrs to give a concentration of 10 micromolar. The calorimetric ELISA assay was performed according to manufacturer's (Roche Molecular Sciences) instructions, with detection by absorbance reading at 450 nm. Results were plotted as concentration of test compound vs. absorbance to give an IC50 value for inhibition of BrdU incorporation.

Q: Which IC50 does the source give for CCN(c1ccc2c(C)n[nH]c2c1)c1ccnc(Nc2cccc(NC(C)=O)c2)n1 [Example 32, N-[3-({4-[ethyl(3-methyl-1H-indazol-6-yl)amino]-2-pyrimidinyl}amino)phenyl]acetamide] here?
A: 1 to 200 nM

Q: With COc1ccc(S(=O)(=O)Cc2cc(C)on2)cc1Nc1nccc(Nc2ccc3c(C)n[nH]c3c2)n1 [Example 33, N^2-(2-methoxy-5-{[(5-methyl-3-isoxazolyl)methyl]sulfonyl}phenyl)-N^4-(3-methyl-1H-indazol-6-yl)-2,4-pyrimidinediamine] as the molecule, how does the IC50 read?
A: > 1000 nM

Q: Which IC50 does the source give for COc1ccc(S(N)(=O)=O)cc1Nc1nccc(Nc2ccc3c(C)n[nH]c3c2)n1 [Example 34, 4-methoxy-3-({4-[(3-methyl-1H-indazol-6-yl)amino]-2-pyrimidinyl}amino)benzenesulfonamide] here?
A: 201 to 500 nM

Q: Which IC50 does the source give for COc1ccc(S(=O)(=O)C(C)C)cc1Nc1nccc(N(C)c2ccc3c(C)n[nH]c3c2)n1 [Example 35, N^2-[5-(isopropylsulfonyl)-2-methoxyphenyl]-N^4-methyl-N^4-(3-methyl-1H-indazol-6-yl)-2,4-pyrimidinediamine] here?
A: 1 to 200 nM

Q: For CCS(=O)(=O)c1ccc(OC)c(Nc2nccc(N(c3ccc4c(C)n[nH]c4c3)C(C)C)n2)c1 [Example 36, N^2-[5-(ethylsulfonyl)-2-methoxyphenyl]-N^4-isopropyl-N^4-(3-methyl-1H-indazol-6-yl)-2,4-pyrimidinediamine], which IC50 is on record?
A: > 1000 nM

Q: CN(c1ccc2cn[nH]c2c1)c1ccnc(Nc2cccc(CS(C)(=O)=O)c2)n1 [Example 37, N^4-(1H-indazol-6-yl)-N^4-methyl-N^2-{3-[(methylsulfonyl)methyl]phenyl}-2,4-pyrimidinediamine] was tested. Which IC50 did it give?
A: 201 to 500 nM

Q: How did the IC50 turn out when Cc1nn(C)c2cc(N(C)c3ccnc(Nc4cccc(CS(C)(=O)=O)c4)n3)ccc12 [Example 38, N^4-(1,3-dimethyl-1H-indazol-6-yl)-N^4-methyl-N^2-{3-[(methylsulfonyl)methyl]phenyl}-2,4-pyrimidinediamine] was run?
A: 201 to 500 nM

Q: Cc1c2ccc(N(C)c3ccnc(Nc4cccc(CS(C)(=O)=O)c4)n3)cc2nn1C [Example 39, N^4-(2,3-dimethyl-2H-indazol-6-yl)-N^4-methyl-N^2-{3-[(methylsulfonyl)methyl]phenyl}-2,4-pyrimidinediamine] was tested. Which IC50 did it give?
A: 1 to 200 nM

Q: How did the IC50 turn out when CCS(=O)(=O)c1ccc(OC)c(Nc2nccc(N(C)c3ccc4c(C)n(C)nc4c3)n2)c1 [Example 40, N^4-(2,3-dimethyl-2H-indazol-6-yl)-N^2-[5-(ethylsulfonyl)-2-methoxyphenyl]-N^4-methyl-2,4-pyrimidinediamine] was run?
A: 1 to 200 nM

Q: For CCC(=O)c1ccc(OC)c(Nc2nccc(Nc3ccc4c(C)n[nH]c4c3)n2)c1 [Example 41, 1-[4-methoxy-3-({4-[(3-methyl-1H-indazol-6-yl)amino]-2-pyrimidinyl}amino)phenyl]-1-propanone], which IC50 is on record?
A: 501 to 1000 nM

Q: With COc1ccc(S(=O)(=O)Nc2cccc(Nc3nccc(N(C)c4ccc5c(C)n[nH]c5c4)n3)c2)cc1 [Example 42, 4-methoxy-N-[3-({4-[methyl(3-methyl-1H-indazol-6-yl)amino]-2-pyrimidinyl}amino)phenyl]benzenesulfonamide] as the molecule, how does the IC50 read?
A: 201 to 500 nM

Q: With CNS(=O)(=O)c1ccc(OC)c(Nc2nccc(Nc3ccc4c(C)n[nH]c4c3)n2)c1 [Example 43, 4-methoxy-N-methyl-3-({4-[(3-methyl-1H-indazol-6-yl)amino]-2-pyrimidinyl}amino)benzenesulfonamide] as the molecule, how does the IC50 read?
A: 201 to 500 nM

Q: Which IC50 does the source give for Cc1n[nH]c2cc(N(CC#N)c3ccnc(Nc4ccc(CS(C)(=O)=O)cc4)n3)ccc12 [Example 44, [(3-methyl-1H-indazol-6-yl)(2-{4-[(methylsulfonyl)methyl]anilino}-4-pyrimidinyl)amino]acetonitrile] here?
A: 201 to 500 nM

Q: CCS(=O)(=O)c1ccc(OC)c(Nc2nccc(N(CC#N)c3ccc4c(C)n[nH]c4c3)n2)c1 [Example 45, [{2-[5-(ethylsulfonyl)-2-methoxyanilino]-4-pyrimidinyl}(3-methyl-1H-indazol-6-yl)amino]acetonitrile] was tested. Which IC50 did it give?
A: 501 to 1000 nM

Q: Cc1n[nH]c2cc(N(CC#N)c3ccnc(Nc4cccc(CS(C)(=O)=O)c4)n3)ccc12 [Example 46, [(3-methyl-1H-indazol-6-yl)(2-{3-[(methylsulfonyl)methyl]anilino}-4-pyrimidinyl)amino]acetonitrile] was tested. Which IC50 did it give?
A: 1 to 200 nM

Q: Which IC50 does the source give for CNS(=O)(=O)c1ccc(OC)c(Nc2nccc(N(C)c3ccc4c(C)n[nH]c4c3)n2)c1 [Example 47, 4-methoxy-N-methyl-3-({4-[methyl(3-methyl-1H-indazol-6-yl)amino]-2-pyrimidinyl}amino)benzenesulfonamide] here?
A: 201 to 500 nM

Q: For Cc1n[nH]c2cc(N(C)c3ccnc(Nc4ccc(C(N)=O)cc4)n3)ccc12 [Example 48, 4-({4-[methyl(3-methyl-1H-indazol-6-yl)amino]-2-pyrimidinyl}amino)benzamide], which IC50 is on record?
A: 1 to 200 nM

Q: COc1cc(S(N)(=O)=O)ccc1Nc1nccc(N(C)c2ccc3c(C)n[nH]c3c2)n1 [Example 49, 3-methoxy-4-({4-[methyl(3-methyl-1H-indazol-6-yl)amino]-2-pyrimidinyl}amino)benzenesulfonamide] was tested. Which IC50 did it give?
A: 1 to 200 nM

Q: With C#CCN(c1ccc2c(C)n[nH]c2c1)c1ccnc(Nc2cccc(CS(C)(=O)=O)c2)n1 [Example 50] as the molecule, how does the IC50 read?
A: 201 to 500 nM

Q: C#CCN(c1ccc2c(C)n[nH]c2c1)c1ccnc(Nc2cccc(S(N)(=O)=O)c2)n1 [Example 51, 3-({4-[(3-methyl-1H-indazol-6-yl)(2-propynyl)amino]-2-pyrimidinyl}amino)benzenesulfonamide] was tested. Which IC50 did it give?
A: 201 to 500 nM

Q: For Cc1n[nH]c2cc(N(C)c3ccnc(Nc4ccc(S(N)(=O)=O)cc4)n3)ccc12 [Example 52, 4-({4-[methyl(3-methyl-1H-indazol-6-yl)amino]-2-pyrimidinyl}amino)benzenesulfonamide], which IC50 is on record?
A: 1 to 200 nM

Q: Cc1n[nH]c2cc(N(C)c3ccnc(Nc4cccc(S(C)(=O)=O)c4)n3)ccc12 [Example 53, N^4-methyl-N^4-(3-methyl-1H-indazol-6-yl)-N^2-[3-(methylsulfonyl)phenyl]-2,4-pyrimidinediamine] was tested. Which IC50 did it give?
A: 1 to 200 nM

Q: For COc1ccc(S(N)(=O)=O)cc1Nc1nccc(N(C)c2ccc3c(C)n[nH]c3c2)n1 [Example 54, 4-methoxy-3-({4-[methyl(3-methyl-1H-indazol-6-yl)amino]-2-pyrimidinyl}amino)benzenesulfonamide], which IC50 is on record?
A: 1 to 200 nM

Q: For CCS(=O)(=O)c1ccc(OC)c(Nc2nccc(Nc3ccc4c(C)n[nH]c4c3)n2)c1 [Example 55, N^2-[5-(ethylsulfonyl)-2-methoxyphenyl]-N^4-(3-methyl-1H-indazol-6-yl)-2,4-pyrimidinediamine], which IC50 is on record?
A: 1 to 200 nM

Q: For Cc1n[nH]c2cc(N(C)c3ccnc(Nc4cccc(C(N)=O)c4)n3)ccc12 [Example 56, 3-({4-[methyl(3-methyl-1H-indazol-6-yl)amino]-2-pyrimidinyl}amino)benzamide], which IC50 is on record?
A: 1 to 200 nM

Q: Which IC50 does the source give for CCS(=O)(=O)c1ccc(Nc2nccc(N(C)c3ccc4c(C)n[nH]c4c3)n2)cc1 [Example 57, N^2-[4-(ethylsulfonyl)phenyl]-N^4-methyl-N^4-(3-methyl-1H-indazol-6-yl)-2,4-pyrimidinediamine] here?
A: 201 to 500 nM

Q: CCS(=O)(=O)NCc1ccc(Nc2nccc(N(C)c3ccc4c(C)n[nH]c4c3)n2)cc1 [Example 58, N-[4-({4-[methyl(3-methyl-1H-indazol-6-yl)amino]-2-pyrimidinyl}amino)benzyl]ethanesulfonamide] was tested. Which IC50 did it give?
A: 1 to 200 nM

Q: For Cc1n[nH]c2cc(N(C)c3ccnc(Nc4cccc(CNS(C)(=O)=O)c4)n3)ccc12 [Example 59, N-[3-({4-[methyl (3-methyl-1H-indazol-6-yl)amino]-2-pyrimidinyl}amino)benzyl]methanesulfonamide], which IC50 is on record?
A: 1 to 200 nM

Q: Which IC50 does the source give for Cc1n[nH]c2cc(N(C)c3ccnc(Nc4ccc(Cl)c(S(N)(=O)=O)c4)n3)ccc12 [Example 60, 2-chloro-5-({4-[methyl(3-methyl-1H-indazol-6-yl)amino]-2-pyrimidinyl}amino)benzenesulfonamide] here?
A: 1 to 200 nM

Q: Which IC50 does the source give for Cc1n[nH]c2cc(N(C)c3ccnc(Nc4ccc(S(N)(=O)=O)c(Cl)c4)n3)ccc12 [Example 61, 2-chloro-4-({4-[methyl(3-methyl-1H-indazol-6-yl)amino]-2-pyrimidinyl}amino)benzenesulfonamide] here?
A: 201 to 500 nM

Q: How did the IC50 turn out when Cc1n[nH]c2cc(N(C)c3ccnc(Nc4cc(S(N)(=O)=O)ccc4Cl)n3)ccc12 [Example 62, 4-chloro-3-({4-[methyl(3-methyl-1H-indazol-6-yl)amino]-2-pyrimidinyl}amino)benzenesulfonamide] was run?
A: 1 to 200 nM

Q: For Cc1cc(S(N)(=O)=O)ccc1Nc1nccc(N(C)c2ccc3c(C)n[nH]c3c2)n1 [Example 63, 3-methyl-4-({4-[methyl(3-methyl-1H-indazol-6-yl)amino]-2-pyrimidinyl}amino)benzenesulfonamide], which IC50 is on record?
A: 201 to 500 nM

Q: Which IC50 does the source give for Cc1ccc(Nc2nccc(N(C)c3ccc4c(C)n[nH]c4c3)n2)cc1S(N)(=O)=O [Example 64, 2-methyl-5-({4-[methyl(3-methyl-1H-indazol-6-yl)amino]-2-pyrimidinyl}amino)benzenesulfonamide] here?
A: 1 to 200 nM

Q: Cc1ccc(S(N)(=O)=O)cc1Nc1nccc(N(C)c2ccc3c(C)n[nH]c3c2)n1 [Example 65, 4-methyl-3-({4-[methyl(3-methyl-1H-indazol-6-yl)amino]-2-pyrimidinyl}amino)benzenesulfonamide] was tested. Which IC50 did it give?
A: 1 to 200 nM
